Data set [1] deals with Glycine max. Description: whole plant or invertebrate. The conditions noted are these: for plant injury at 140 g/ha / plant injury at 280 g/ha: Glycine max, post-emergence, 504 h, read-out: Control/Injury; for Control/Injury: in vivo. The gist of the method:
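Greenhouse soybean (25–28 °C, 16 h light) sprayed post-emergence at 2–8 leaf stage with 140 or 280 g ae/ha in acetone/DMSO-based spray solution with crop oil concentrate, 187 L/ha by track sprayer; 3–4 replicates, randomized blocks. Plant size reduction versus untreated control measured 21 days after treatment.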

The subject of data set [2] is Ambrosia artemisiifolia (AMBEL). The experiment in a line: Postemergence herbicide evaluation, percent reduction in plant size vs untreated control, 21 days after treatment. Format: in vivo, Ambrosia artemisiifolia (common ragweed). The conditions noted are these: post-emergence, 504 h, AMBEL, postemergence, read-out: Control/Injury; for pest or weed control at 140 g/ha: rate 140 g ae/ha; for pest or weed control at 280 g/ha: rate 280 g ae/ha. The method in brief: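 Greenhouse-grown plants (25–28 °C, 16 h light) were sprayed postemergence at the 2–8 leaf stage with 140 or 280 g ae/ha in acetone/DMSO-based spray solution with crop oil and surfactant, at 187 L/ha by track sprayer. There were 3–4 replicates. Plant size was measured 21 days after treatment versus untreated plants.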

In data set [3] the test system is Amaranthus rudis (AMATA). The description is as above. It is filed as in vivo, Amaranthus rudis (tall water hemp). The conditions noted are these: Amaranthus tuberculatus, post-emergence, 504 h, AMATA, postemergence, read-out: Control/Injury; for pest or weed control at 140 g/ha: rate 140 g ae/ha; for pest or weed control at 280 g/ha: rate 280 g ae/ha. The method in brief:
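Greenhouse-grown tall waterhemp (25-28° C, 16 h light) at the 2-8 leaf stage, treated by track sprayer at 187 L/ha with compound at 140 or 280 g ae/ha in acetone/DMSO-based spray solution with crop oil and surfactant. 3-4 replicates per treatment, randomized complete block; plant size reduction versus untreated control measured 21 days after treatment.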

The test system of data set [4] is Conyza canadensis (L.) (ERICA). The data set is described as above. It is filed as in vivo, Conyza canadensis (L.) (Horseweed). The conditions noted are these: Erigeron canadensis, post-emergence, 504 h, ERICA, postemergence, read-out: Control/Injury; for pest or weed control at 140 g/ha: rate 140 g ae/ha; for pest or weed control at 280 g/ha: rate 280 g ae/ha. The gist of the method:
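Horseshoe-weed (horseweed) seedlings at 2 to 8 leaf stage in greenhouse (25-28° C, 16 h light), sprayed postemergence at 140 or 280 g ae/ha in acetone/DMSO-based spray solution, 187 L/ha track-sprayer. Randomized complete block, 3-4 replicates; plant size measured 21 days after treatment as percent reduction vs untreated controls.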

For data set [5], the system named is Kochia scoparia (KCHSC). Described as above. It is filed as in vivo. The conditions noted are these: Bassia scoparia, post-emergence, 504 h, KCHSC, postemergence, 21 days after treatment, read-out: Control/Injury; for pest or weed control at 140 g/ha: rate 140 g ae/ha; for pest or weed control at 280 g/ha: rate 280 g ae/ha. The method in brief: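 Greenhouse-grown plants (25-28 °C, 16 h light) at the 2 to 8 leaf stage were track-sprayed postemergence at 140 or 280 g ae/ha in acetone/DMSO-based spray solution with crop oil and surfactant, at 187 L/ha, in 3-4 randomized replicates.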

Data set [6] has as its system Amaranthus palmeri (AMAPA). The description is as above. It is filed as in vivo, Amaranthus palmeri (Palmer amaranth). Conditions: post-emergence, 504 h, postemergence, read-out: Control/Injury; for pest or weed control at 140 g/ha: rate 140 g ae/ha; for pest or weed control at 280 g/ha: rate 280 g ae/ha. The gist of the method:
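Greenhouse-grown Palmer amaranth (25 to 28° C, 16 h light) sprayed postemergence at the 2 to 8 leaf stage with 140 or 280 g ae/ha in acetone/DMSO-based solution containing crop oil concentrate, 187 L/ha by track sprayer. Three to four replicates; plant size measured 21 days after treatment as percent reduction versus untreated control.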

[7] abbreviates: percent reduction vs untreated control, 21 days after treatment.
The mark [8] stands for this setting: percent reduction vs untreated control.
Where [9] appears, read: R-AMAPA, percent reduction vs untreated control, 21 days after treatment.

Like-named read-outs stand apart in the source and are kept apart here.

In the case of `CCOC(=O)/C(C#N)=N/OC(=O)c1c(Cl)ccc(Cl)c1OC` [Compound A-86], the plant injury at 140 g/ha in data set [1] was 32%. For the same compound, in data set [1], the plant injury at 280 g/ha is 25%. Also, the pest or weed control at 140 g/ha was determined as 88% in data set [2]; 63% in data set [3]; 87% in data set [4] (setting [7]); 90% in data set [5] (setting [8]); 72% in data set [6] (setting [9]). Moreover, the pest or weed control at 280 g/ha in data set [2] stood at 91%; in data set [3] it was 67%; in data set [4] (setting [7]) it was 95%; in data set [5] (setting [8]), 97%; in data set [6] (setting [9]), 73%.
With `CCOC(=O)C(=NOC(=O)c1c(Cl)ccc(Cl)c1OC)C(=O)OCC` [Compound A-87], in data set [1], the plant injury at 140 g/ha is 5%. For the same compound, the plant injury at 280 g/ha in data set [1] was determined as 28%. Further, the pest or weed control at 140 g/ha in data set [2] came out at 70%; in data set [3], 37%; in data set [4] (setting [7]), 30%; in data set [5] (setting [8]) it was 90%; in data set [6] (setting [9]), 62%. The pest or weed control at 280 g/ha was 65% in data set [2]; 20% in data set [3]; 33% in data set [4] (setting [7]); 70% in data set [5] (setting [8]); 53% in data set [6] (setting [9]).
Turning to `COc1c(Cl)ccc(Cl)c1C(=O)ONC(=O)c1ccccc1` [Compound A-89], the plant injury at 140 g/ha in data set [1] worked out at 13%. Moreover, the plant injury at 280 g/ha in data set [1] was determined as 5%. The pest or weed control at 140 g/ha in data set [2] was 80%; in data set [3] it was 63%; in data set [4] (setting [7]) it was 77%; in data set [5] (setting [8]) it was 84%; in data set [6] (setting [9]) it was 70%. In addition, the pest or weed control at 280 g/ha in data set [2] was 90%; in data set [3] it was 78%; in data set [4] (setting [7]), 95%; in data set [5] (setting [8]), 95%; in data set [6] (setting [9]), 88%.
For the compound `COc1c(Cl)ccc(Cl)c1C(=O)OC(=O)c1c(Cl)ccc(Cl)c1OC` [Compound A-90], the plant injury at 140 g/ha in data set [1] was found to be 8%. Also, the plant injury at 280 g/ha in data set [1] turned out to be 3%. In addition, the pest or weed control at 140 g/ha in data set [2] came to 57%; in data set [3], 22%; in data set [4] (setting [7]), 30%; in data set [5] (setting [8]), 17%; in data set [6] (setting [9]), 32%. For the same compound, the pest or weed control at 280 g/ha in data set [2] is 67%; in data set [3], 18%; in data set [4] (setting [7]), 25%; in data set [5] (setting [8]), 32%; in data set [6] (setting [9]), 40%.
Turning to `CC/C(C)=N/OC(=O)c1c(Cl)ccc(Cl)c1OC` [Compound A-91], the plant injury at 140 g/ha in data set [1] came out at 3%. In addition, the plant injury at 280 g/ha in data set [1] stood at 3%. For the same compound, the pest or weed control at 140 g/ha worked out at 82% in data set [2]; 72% in data set [3]; 85% in data set [4] (setting [7]); 78% in data set [5] (setting [8]); 72% in data set [6] (setting [9]). Besides, the pest or weed control at 280 g/ha was determined as 96% in data set [2]; 78% in data set [3]; 88% in data set [4] (setting [7]); 98% in data set [5] (setting [8]); 88% in data set [6] (setting [9]).
On to `COc1c(Cl)ccc(Cl)c1C(=O)ON1CCCCC1` [Compound A-92], for which the plant injury at 140 g/ha in data set [1] came out at 2%. In addition, the plant injury at 280 g/ha in data set [1] came to 4%. Further, the pest or weed control at 140 g/ha in data set [2] was determined as 92%; in data set [3], 63%; in data set [4] (setting [7]), 85%; in data set [5] (setting [8]) it was 83%; in data set [6] (setting [9]), 78%. Further, the pest or weed control at 280 g/ha in data set [2] turned out to be 96%; in data set [3], 92%; in data set [4] (setting [7]) it was 92%; in data set [5] (setting [8]), 98%; in data set [6] (setting [9]), 80%.
As for `CCO/C(C)=N\OC(=O)c1c(Cl)ccc(Cl)c1OC` [Compound A-93], in data set [1], the plant injury at 140 g/ha came out at 10%. For the same compound, the plant injury at 280 g/ha in data set [1] came to 5%. Further, the pest or weed control at 140 g/ha was determined as 68% in data set [2]; 60% in data set [3]; 63% in data set [4] (setting [7]); 77% in data set [5] (setting [8]); 68% in data set [6] (setting [9]). Moreover, the pest or weed control at 280 g/ha in data set [2] turned out to be 90%; in data set [3], 75%; in data set [4] (setting [7]) it was 80%; in data set [5] (setting [8]) it was 93%; in data set [6] (setting [9]), 80%.
For `COc1c(Cl)ccc(Cl)c1C(=O)ONC(=O)c1cccnc1` [Compound A-94], the plant injury at 140 g/ha in data set [1] worked out at 12%. Besides, in data set [1], the plant injury at 280 g/ha stood at 3%. The same compound displayed a Control/Injury in data set [1] of 15. Moreover, the pest or weed control at 140 g/ha in data set [2] turned out to be 75%; in data set [3], 68%; in data set [4], 95%; in data set [4] (setting [7]), 62%; in data set [5] (setting [8]), 85%; in data set [5] (percent reduction vs untreated) it was 93%. Also, the pest or weed control at 140 g/ha in data set [6] (AMAPA) is 83%; in data set [6] (setting [9]), 73%. In addition, the pest or weed control at 280 g/ha in data set [2] turned out to be 83%; in data set [4], 99%; in data set [4] (setting [7]) it was 77%; in data set [5] (setting [8]) it was 93%; in data set [5] (percent reduction vs untreated), 98%; in data set [6] (AMAPA), 99%. Also, the pest or weed control at 280 g/ha in data set [6] (setting [9]) is 80%.
As for `COc1c(Cl)ccc(Cl)c1C(=O)NCc1ccccc1` [Compound A-114], in data set [1], the Control/Injury turned out to be 3. The pest or weed control at 140 g/ha in data set [2] was determined as 5%; in data set [3], 0%; in data set [4], 2%; in data set [5] (percent reduction vs untreated), 0%; in data set [6] (AMAPA) it was 5%. The pest or weed control at 280 g/ha in data set [2] was 0%; in data set [3], 5%; in data set [4] it was 7%; in data set [5] (percent reduction vs untreated), 0%; in data set [6] (AMAPA) it was 5%.
In data set [1], `COc1c(Cl)ccc(Cl)c1C(=O)N1C(=O)C(=O)c2ccccc21` [Compound A-116] returned a Control/Injury of 2. The pest or weed control at 140 g/ha in data set [2] came to 3%; in data set [3] it was 5%; in data set [4], 3%; in data set [5] (percent reduction vs untreated), 0%; in data set [6] (AMAPA), 8%. Further, the pest or weed control at 280 g/ha turned out to be 10% in data set [2]; 33% in data set [3]; 5% in data set [4]; 5% in data set [5] (percent reduction vs untreated); 30% in data set [6] (AMAPA).

(Values after US20240122179A1, “AUXINIC HERBICIDES AND METHODS OF USE THEREOF” (CORTEVA AGRISCIENCE LLC, priority 2021, published 2024).)
